The test relates to UT7/EPO Cell line. The experiment in a line: Cell Proliferation Assay (UT7/EPO, ViaLight Plus). It is filed as cell-based, human. Conditions: proliferative effect; compounds at 10 uM; UT7/EPO cells starved of EPO overnight; 72 hours at 37° C.; ViaLight Plus kit. On the procedure:
The primary testing for the examplfied compounds was performed in UT7/EPO Cell line. UT7/EPO is human leukemia cell line, obtained from Dr. Norio Komatsu (Blood, Vol 82 (2), pp 456-464, 1993). These cells express endogenous EPO receptor and are dependant upon EPO for growth and proliferation. Briefly, the cells were starved of EPO overnight and plated in 96 or 384 well plates. The compounds were added to the cells at 10 uM concentration. The plates were then incubated at 37° C. for 72 hours. The proliferative effect of the compounds was measured by a commercially available kit from Lonza (ViaLight Plus).

`CON=C(c1ccc(NC(=O)c2ccc(N3CCC(O)C3)cc2)cc1)c1ccc(NC(=O)c2ccc(N3CCC(O)C3)cc2)cc1` (stereo not drawn) [Compound 315, N,N′-(((methoxyimino)methylene)bis(4,1-phenylene))bis(4-(3-hydroxypyrrolidin-1-yl)benzamide)]: the “Activity (%)” value was found to be 16%. Then `O=C(Nc1ccc(C(=O)c2ccc(NC(=O)c3ccc(N4CCCCC4)cc3)cc2)cc1)c1ccc(N2CCCCC2)cc1` [Compound 322, N,N′-(carbonylbis(4,1-phenylene))bis(4-(piperidin-1-yl)benzamide)], with 20%; and `O=C(Nc1ccc(C(=O)c2ccc(NC(=O)c3ccc(N(CCO)CCO)cc3)cc2)cc1)c1ccc(N(CCO)CCO)cc1` [Compound 327, N,N′-(carbonylbis(4,1-phenylene))bis(4-(bis(2-hydroxyethyl)amino)benzamide)], with 17%. With `CON=C(c1ccc(NC(=O)c2ccc(N(C)CCO)cc2)cc1)c1ccc(NC(=O)c2ccc(N(C)CCO)cc2)cc1` [Compound 332, N,N′-(((methoxyimino)methylene)bis(4,1-phenylene))bis(4-((2-hydroxyethyl)(methyl)amino)benzamide)], the “Activity (%)” value turned out to be 18%. Regarding `CON=C(c1ccc(NC(=O)c2ccc(N3CCN(C(=O)C4CC4)CC3)cc2)cc1)c1ccc(NC(=O)c2ccc(N3CCN(C(=O)C4CC4)CC3)cc2)cc1` [Compound 338, N,N′-(((methoxyimino)methylene)bis(4,1-phenylene))bis(4-(4-(cyclopropanecarbonyl)piperazin-1-yl)benzamide)], the “Activity (%)” value is listed as 19%. Then `O=C(Nc1ccc(C(=O)c2ccc(NC(=O)c3ccc4[nH]ccc4c3)cc2)cc1)c1ccc2[nH]ccc2c1` [Compound 345, N,N′-(4,4′-Carbonylbis(4,1-phenylene))bis(1H-indole-5-carboxamide)], with 19%; and `CC(=O)Nc1ccc(C(=O)c2ccc(NC(=O)c3ccc4c(ccn4C)c3)cc2)cc1` [Compound 349], with 11%; and `CN(C)c1ccc(C(=O)Nc2ccc(C(=O)c3ccc(NC(=O)c4ccc(F)cc4)cc3)cc2)cc1` [Compound 354, 4-(Dimethylamino)-N-(4-(4-(4-fluorobenzamido)benzoyl)phenyl)benzamide], with 20%. Then `O=C(Nc1ccc(C(=O)c2ccc(NC(=O)C3CC3)cc2)cc1)c1ccc(N2CCOCC2)cc1` [Compound 359], with 19%; and `O=C(Nc1ccc(Nc2ccc(NC(=O)c3ccc(N4CCC(O)CC4)cc3)cc2)cc1)c1ccc(N2CCC(O)CC2)cc1` [Compound 364, N,N′-(4,4′-Azanediylbis(4,1-phenylene))bis(4-(4-hydroxypiperidino)benzamide)], with 16%; and `CN(C)c1ccc(C(=O)Nc2ccc(-n3ccc4cc(NC(=O)c5ccc(N(C)C)cc5)ccc43)cc2)cc1` [Compound 370, N-(1-(4-(4-Dimethylaminobenzamido)phenyl)-1H-indol-5-yl)-4-dimethylaminobenzamide], with 18%. As for `CN(C)c1ccc(C(=O)Nc2ccc3c(cnn3-c3ccc(NC(=O)c4ccccc4)cc3)c2)cc1` [Compound 375, N-(1-(4-Benzamidophenyl)-1H-indazol-5-yl)-4-dimethylaminobenzamide], the “Activity (%)” value was found to be 11%. Regarding `Nc1ccc(-n2ncc3cc(NC(=O)c4ccc(N5CCOCC5)cc4)ccc32)cc1` [Compound 381, N-(1-(4-Aminophenyl)-1H-indazol-5-yl)-4-morpholinobenzamide], the “Activity (%)” value stood at 15%. As for `CN(C)c1ccc(C(=O)Nc2ccc(-n3ncc4cc(NC(=O)C5CC5)ccc43)cc2)cc1` [Compound 384, N-(4-(5-(cyclopropanecarboxamido)-1H-indazol-1-yl)phenyl)-4-(dimethylamino)benzamide], the “Activity (%)” value amounted to 11%. With `N#Cc1ccc(-n2ncc3cc(NC(=O)c4ccc(N5CCC(O)CC5)cc4)ccc32)cc1` [Compound 404, N-(1-(4-Cyanophenyl)-1H-indazol-5-yl)-4-(4-hydroxypiperidino)benzamide], the “Activity (%)” value worked out at 14%. Then `CN(C)c1ccc(C(=O)Nc2ccc(Sc3ccc(NC(=O)c4ccc(N(C)C)cc4)cc3)cc2)cc1` [Compound 408, N,N′-(4,4′-Thiobis(4,1-phenylene))bis(4-(dimethylamino)benzamide)], with 13%; and `O=C(Nc1ccc2[nH]c(-c3ccc(N4CCC5(CC4)OCCO5)cc3)nc2c1)c1ccc(N2CCOCC2)cc1` [Compound 413, N-(2-(4-(1,4-Dioxa-8-azaspiro[4,5]decan-8-yl)phenyl)-1H-benzimidazol-5-yl)-4-morpholinobenzamide], with 19%; and `O=C(Nc1ccc2[nH]c(-c3ccc(N4CCOCC4)s3)nc2c1)c1ccc(N2CCOCC2)cc1` [Compound 418, N-(2-(2-Morpholinothien-5-yl)-1H-benzimidazol-5-yl)-4-morpholinobenzamide], with 11%. `CN1CCN(c2ccc(-c3nc4cc(NC(=O)c5ccc(N6CCOCC6)cc5)ccc4[nH]3)cc2)CC1` [Compound 423, N-(2-(4-(4-Methylpiperazino)phenyl)-1H-benzimidazol-5-yl)-4-morpholinobenzamide]: the “Activity (%)” value was found to be 15%. Consider `O=C(Nc1ccc2[nH]c(-c3ccc(N4CCOCC4)cc3)nc2c1)c1ccccc1O` [Compound 427, N-(2-(4-Morpholinophenyl)-1H-benzimidazol-5-yl)-2-hydroxybenzamide], for which the “Activity (%)” value is listed as 15%.

In the case of `O=C(Nc1ccc2[nH]c(-c3ccc(N4CCOCC4)cc3)nc2c1)C(=O)Nc1ccc2nc(-c3ccc(N4CCOCC4)cc3)[nH]c2c1` [Compound 434, N,N′-bis-(2-(4-Morpholinophenyl)-1H-benzimidazol-5-yl)oxalamide], the “Activity (%)” value is recorded as 15%. Then `COc1cccc(Nc2nc3cc(NC(=O)c4ccc5[nH]c(-c6ccc(N(C)C)cc6)nc5c4)ccc3[nH]2)c1` [Compound 439, N-(2-(3-Methoxyphenyl)amino-1H-benzimidazol-5-yl)-2-(4-dimethylaminophenyl)-1H-benzimidazole-5-carbamide], with 18%; and `COc1ccc(-c2nc3cc(NC(=O)c4ccc(NC(=O)c5ccc(N(C)C)cc5)cc4)ccc3[nH]2)cc1` [Compound 444, 4-(dimethylamino)-N-(4-((2-(4-methoxyphenyl)-1H-benzo[d]imidazol-5-yl)carbamoyl)phenyl)benzamide], with 19%; and `CS(=O)(=O)Nc1ccc2[nH]c(-c3ccc(C(=O)Nc4ccc(N5CCOCC5)cc4)cc3)nc2c1` [Compound 449], with 16%. Then `CC(=O)Nc1ccc2[nH]c(-c3ccc(C(=O)Nc4ccc(N5CCOCC5)cc4)cc3)nc2c1` [Compound 454, 4-(5-Acetamino-1H-benzimidazol-2-yl)-N-(4-morpholinophenyl)benzamide], with 16%; and `O=C(Nc1ccc(N2CCOCC2)cc1)c1ccc(-c2nc3ccccc3[nH]2)cc1` [Compound 458, 4-(1H-Benzimidazol-2-yl)-N-(4-morpholinophenyl)benzamide], with 10%. Then `O=C(CNC(=O)c1ccc(-c2ccc(C(=O)NCC(=O)Nc3ccc(N4CCOCC4)cc3)cc2)cc1)Nc1ccc(N2CCOCC2)cc1` [Compound 465, N,N′-bis(2-(4-Morpholinophenylamino)-2-oxoethyl)biphenyl-4,4′-dicarboxamide], with 18%. As for `COc1ccc(-c2cc(NC(=O)c3ccc(C(=O)Nc4cc(-c5ccc(OC)cc5)[nH]n4)cc3)n[nH]2)cc1` [Compound 473, N,N′-bis(5-(4-Methoxyphenyl)-1H-pyrazol-3-yl)terephthalamide], the “Activity (%)” value turned out to be 11%.

Regarding `O=C(Nc1ccc2[nH]c(-c3ccc(-c4ccccn4)cc3)nc2c1)c1ccccc1` [Compound 479, N-(2-(4-(Pyridin-2-yl)phenyl)-1H-benzimidazol-5-yl)benzamide], the “Activity (%)” value amounted to 15%.

Turning to `CCNc1ccc(C(=O)c2ccc(NC(=O)c3ccc(N4CCOCC4)cc3)cc2)cc1` [Compound 484, N-(4-(4-Ethylaminobenzoyl)phenyl)-4-morpholinobenzamide], the “Activity (%)” value was 16%.

Consider `O=C(Nc1ccc(C(=O)c2ccc(NC(=O)c3ccsc3)cc2)cc1)c1ccc(N2CCOCC2)cc1` [Compound 490, N-(4-(4-(3-Thienylcarboxamido)benzoyl)phenyl)-4-morpholinobenzamide], for which the “Activity (%)” value amounted to 15%.

In the case of `Cc1cc(C(=O)Nc2ccc(C(=O)c3ccc(NC(=O)c4ccc(N5CCOCC5)cc4)cc3)cc2)[nH]n1` [Compound 500, 3-Methyl-N-(4-(4-(4-morpholinobenzamido)benzoyl)phenyl)-1H-pyrazole-5-carboxamide], the “Activity (%)” value stood at 19%. Then `O=C(Nc1ccc2c(cnn2-c2ccc(NC(=O)c3ccc4cc[nH]c4c3)cc2)c1)c1ccc(N2CCC(O)CC2)cc1` [Compound 510, N-(4-(5-(4-(4-Hydroxypiperidin-1-yl)benzamido)-1H-indazol-1-yl)phenyl)-1H-indole-6-carboxamide], with 17%; and `O=C(Nc1ccc2c(cnn2-c2ccc(NCC3CC3)cc2)c1)c1ccc(N2CCOCC2)cc1` [Compound 530], with 11%; and `O=C(Nc1ccc2nn(-c3ccc([N+](=O)[O-])cc3)cc2c1)c1ccc(N2CCOCC2)cc1` [Compound 540, 4-Morpholino-N-(2-(4-nitrophenyl)-2H-indazol-5-yl)benzamide], with 17%. Then `CN1CCN(C(=O)Nc2ccc(-n3ncc4cc(NC(=O)c5ccc(N6CCOCC6)cc5)ccc43)cc2)CC1` [Compound 550, 4-Methyl-N-(4-(5-(4-morpholinobenzamido)-1H-indazol-1-yl)phenyl)piperazine-1-carboxamide], with 9%.
